Test results published in patent publication US8309570B2, “Treatment of central neuropathic pain” (Analgesic Neuropharmaceuticals, LLC, priority 2001, dated 2012).
Entries after “also recorded” stand apart in the source; their conditions may differ. Where a name gives a salt, the structure may show the parent alone.

Assays:
[1] = system: central neuropathic pain following traumatic spinal cord injury; assay: Crossover trial: quality of life, Duke Health Profile; type: in vivo, human; conditions: for Pain domain, compared to placebo: combination p=0.002, dextromethorphan p=0.001, gabapentin p=0.03
Method: (§1) Secondary endpoints were assessed at a clinic visit on the final day of each treatment period, and included: 1) Global Pain Intensity (6-item categorical scale); 2) Global Pain Relief (6-item categorical scale); 3) pain intensity (Gracely Scale) of individual pain descriptors (burning pain; aching pain; tingling pain; cold pain; brief lancinating pain; deep stabbing pain; constricting pain; and touch-evoked pain (allodynia)); 4) areas of evoked pain: a) allodynia and b) pinprick-evoked hyperalgesia; 5) quality of life, assessed using the Duke Health Profile (Parkerson, G R, et al. Medical Care 28:1056-1069(1990)). 6) Patient Satisfaction (5-item categorical scale); 7) patients' assessment of best treatment. Allodynia was mapped by stroking the skin with the distal 5 mm of the corner of a 2×2 gauze sponge at standard pressure, at a rate of 1 cm/sec. Pinprick-evoked hyperalgesia was mapped using a standard safety pin that was pressed against the skin until dimpling was visible. Ambient temperature was maintained at 24 degrees centigrade. All mapping took place within a 30-minute period. The delineated areas of evoked pain were recorded using photographs of 4 views (anterior/posterior/right lateral/left lateral), which were scanned, and the areas of each of the 4 views were summed to determine the composite area.

[2] = Crossover trial: titration to maximally tolerated dose (MTD); type: in vivo, human; conditions: drug alone; for mean dose during Week 5: after 4 weeks of titration to MTD; for maximum daily dose administered: titration to MTD
Source text: (§2) All patients were followed as outpatients. Patients were randomly assigned to a sequence of the 4 treatments. Each of the 4 treatment periods consisted of 5 weeks. Each treatment period was separated by a 1-week washout period, with the requirement that pain return to baseline level. Dextromethorphan (Endo Inc., Neptune, N.J.; and its externally identical placebo) and gabapentin (Neurontin, Pfizer, Inc., Ann Arbor, Mich.; and its externally identical placebo) were dispensed using a double-dummy design; thus, the dextromethorphan:gabapentin dose-ratio was maintained at 1:5. Subjects started at 120 mg/day of dextromethorphan vs. placebo and 600 mg/day of gabapentin vs. placebo, and titrated according to a fixed schedule until they reached the ceiling doses equivalent to 600 mg/day of dextromethorphan or 3000 mg/day of gabapentin or their maximally tolerated dose (the dose just causing side effects, MTD). The titration regimen and the number of capsules per dose for each treatment were the same in each treatment group, in order to maintain double blinded conditions.

[3] = system: central neuropathic pain following traumatic spinal cord injury; assay: Randomized, double-blind, double-dummy, 2x2 factorial crossover trial: spontaneous pain, pain relief, patient satisfaction; type: in vivo, human; conditions: for patients choosing treatment as best pain relief / patients choosing treatment as best, balance between analgesia and side effects: at completion of the study, p=0.04; for SCI (spontaneous) pain compared to placebo: chronic oral administration; for overall patient satisfaction at the end of each treatment period, compared to placebo: dextromethorphan p<0.001, gabapentin p<0.01, combination p<0.001; for patients with at least moderate or better pain relief: of 18 patients, end of 5-week treatment
Method: Central neuropathic pain following traumatic spinal cord injury (SCI) may be severe and refractory to standard analgesics. Pharmacologic agents that target distinct pathophysiological pain mechanisms theoretically could provide pain relief for these patients. The analgesic efficacy of dextromethorphan and gabapentin in combination, dextromethorphan alone, gabapentin alone, and placebo, in patients with pain following SCI was evaluated in a randomized, double-blind, double-dummy, 2×2 factorial, Latin Square crossover trial, we evaluated the four treatments. Each treatment was titrated over 4 weeks and maintained at the individual's […] until the end of Week 5. Each treatment period was followed by a 1-week washout period or until pain returned to baseline. Primary efficacy measure was mean pain intensity during the 5-week treatment period, measured by the 20-point Gracely pain intensity scale.
Patients with 1) central neuropathic pain secondary to traumatic SCI in persons >18 years of age, 2) moderate pain for at least 50% of the day for at least 3 months, 3) concurrent use of no more than two analgesics at a stable dose (e.g. tricyclic antidepressants, anticonvulsants, nonsteroidal antiinflammatory drugs, or limited use of low-potency short-acting opioids), and 4) 100% compliance in rating their overall pain intensity 5-times daily in a diary for 1 week, were recruited nationwide between July 1997 and April 1999 using written announcements and by physician referrals.
as §2
The primary endpoint was mean spontaneous pain intensity averaged weekly, from the start of study drug until the end of Week 5 for each treatment period and overall for the 5 weeks, assessed in a diary in which pain ratings were recorded 5-times daily, and evaluated with the 20-point Gracely pain scale based on 13 words (“faint” to “extremely intense”) (Gracely R H, et al. Pain 5:5-18(1978)).
as §1, with “Ambient temperature was maintained at 24 degrees centigrade. All mapping took place within a 30-minute period. The delineated areas of evoked pain were recorded using photographs of 4 views (anterior/posterior/right lateral/left lateral), which were scanned, and the areas of each of the 4 views were summed to determine the composite area.” left out

[4] = Crossover trial: adverse effects; type: in vivo, human; conditions: for confusion, proportion of patients / dizziness, proportion of patients / euphoria, proportion of patients / fatigue, proportion of patients / somnolence, proportion of patients / speech difficulty, proportion of patients / urinary incontinence, proportion of patients / urinary tract infection, proportion of patients: human, in vivo, oral, 5 weeks
Method: Presence and intensity (5-item categorical scale) of adverse effects were assessed continuously using an open question.

[5] = system: neuropathic pain; conditions: cited from earlier work
[6] = system: central neuropathic pain following traumatic spinal cord injury; assay: Crossover trial: evoked pain (touch-evoked allodynia, pinprick-evoked hyperalgesia); type: in vivo, human; conditions: for intensity of touch-evoked allodynia, compared to placebo: 14 subjects with allodynia, dextromethorphan p=0.03, gabapentin p=0.01, combination p=0.001; for mean area of allodynia after treatment / mean area of allodynia, reduction from baseline: baseline 362±496 cm^2; for mean area of pinprick hyperalgesia after treatment / mean area of pinprick hyperalgesia, reduction from baseline: baseline 371±523 cm^2; for areas of pinprick hyperalgesia, difference: combination p=0.03, dextromethorphan p=0.02, gabapentin p=0.03
Method: as §1

[7] = system: spinally injured rats; conditions: repeated doses; cited from earlier work
[8] = system: SCI pain; conditions: acute parenteral administration; cited from earlier work
[9] = system: SCI pain; conditions: chronic oral agents; cited from earlier work

Structure (SMILES)	Pain domain, compared to placebo [1]	mean dose during Week 5 [2] [mg/day]	mean daily dose [2] [mg]	maximum daily dose administered [2] [mg/day]	patients choosing treatment as best pain relief [3] [%]	patients choosing treatment as best, balance between analgesia and side effects [3] [%]	overall patient satisfaction at the end of each treatment period, compared to placebo [3]	patients with at least moderate or better pain relief [3] [%]	confusion, proportion of patients [4] [%]	dizziness, proportion of patients [4] [%]	euphoria, proportion of patients [4] [%]	fatigue, proportion of patients [4] [%]	somnolence, proportion of patients [4] [%]	speech difficulty, proportion of patients [4] [%]	urinary incontinence, proportion of patients [4] [%]	urinary tract infection, proportion of patients [4] [%]	intensity of touch-evoked allodynia, compared to placebo [6]	mean area of allodynia after treatment [6] [cm^2]	mean area of allodynia, reduction from baseline [6] [%]	mean area of pinprick hyperalgesia after treatment [6] [cm^2]	also measured
COc1ccc2c(c1)[C@]13CCCC[C@@H]1[C@H](C2)N(C)CC3 [dextromethorphan, dextromethorphan hydrobromide]	significantly better than placebo	416 ± 34	416	470 ± 29	33.3	17.5	significantly better	50	33	67	24	52	62	10	5	38	significantly reduced	183±321	49	122±287	Physical Health measure, compared to placebo ([1]; combination p=0.001, dextromethorphan p=0.02): significantly better than placebo; General Health measure, compared to placebo ([1]; combination p=0.01, dextromethorphan p=0.04): significantly better than placebo; SCI (spontaneous) pain compared to placebo ([3]; hydrobromide): significant reduction; also recorded: superior to placebo; intensity of burning pain, compared to placebo ([3]; combination p=0.005, dextromethorphan p=0.001): significant relief; brief paroxysms of lancinating pain, compared to placebo ([3]; combination p=0.03, dextromethorphan p=0.003): significant relief; proportion of patients with cognitive side effects, compared to either placebo or gabapentin ([4]; p<0.002): significantly larger proportion; proportion of patients with other side effects, compared to placebo ([4]; p=0.01): significantly larger proportion; analgesic effect in patients with neuropathic pain ([5]; dextromethorphan alone at 81 mg/day): inability; effect in patients with peripheral neuropathic pain ([5]; human, in vivo): marginal effect; mean area of pinprick hyperalgesia, reduction from baseline [6]: 67%; areas of pinprick hyperalgesia, difference [6]: significant difference
NCC1(CC(=O)O)CCCCC1 [gabapentin]	significantly better than placebo	2657 ± 155	2657	2717 ± 148	27.8	23.5	significantly better	39	22	22	6	33	33	0	11	22	significantly reduced	106±231	71	152±332	SCI (spontaneous) pain compared to placebo [3]: significant reduction; also recorded: superior to placebo; chronic hypersensitivity [7]: alleviated chronic hypersensitivity; mean area of pinprick hyperalgesia, reduction from baseline [6]: 59%; areas of pinprick hyperalgesia, difference [6]: significant difference; area of allodynia, compared to placebo ([6]; combination p=0.05, gabapentin p=0.02): significant difference from placebo
CNC1(c2ccccc2Cl)CCCCC1=O (centres unmarked) [ketamine]	–	–	–	–	–	–	–	–	–	–	–	–	–	–	–	–	–	–	–	–	spontaneous and evoked SCI pain [8]: reduced both spontaneous and evoked SCI pain
Cc1cccc(C)c1OCC(C)N (centres unmarked) [mexiletine]	–	–	–	–	–	–	–	–	–	–	–	–	–	–	–	–	–	–	–	–	results of randomized controlled trials in SCI pain [9]: negative
O=c1n(CCCN2CCN(c3cccc(Cl)c3)CC2)nc2ccccn12 [trazodone]	–	–	–	–	–	–	–	–	–	–	–	–	–	–	–	–	–	–	–	–	results of randomized controlled trials in SCI pain [9]: negative
